{"source": "patent US5962415A", "about": "“Compositions comprising a peptide inhibitor of nuclear protein translocation and an immunosuppressant and methods of use thereof” (Bristol-Myers Squibb Co., priority 1998, dated 1999)", "key": {"Jurkat T-cells": {"test_system": "Jurkat T-cells", "assay": "Apoptosis in anti-CD3-treated Jurkat T-cells", "assay_type": "cell-based, human", "procedure": "A 24-hr incubation of Jurkat T-cells with SV40MEM and anti-CD3, caused greater than 85% of the cells to apoptose."}, "[1]": {"test_system": "BALB/c mice immunized with sheep red blood cells", "assay": "Murine sheep red blood cell assay (anti-SRBC antibody response)", "assay_type": "in vivo", "procedure": "Female BALB/c mice (6-8 weeks of age) were housed in groups of 5 in Thorne units with ad libitum access to food and water. Mice were immunized on day 0 by intravenous (IV) injection of 1×10^8 sheep red blood cells (\"SRBCs\"). The mice were then divided into groups of five and control solutions or inhibitory peptides were administered at various doses, either by IV injection or orally (\"PO\") by gavage with a 24-gauge feeding tube and routes.\nThe SV40MEM polypeptide was administered either intravenously (IV) or orally (PO) with the following schedule: IV administration of 5 mg/kg on days 0, 1, 2, and 3; PO administration of 1 mg/kg on days 0, 1, 2, 3, and 4. After 14 days, the mice were bled from the orbital sinus and the level of anti-SRBC antibodies were measured in the serum by ELISA. Briefly, Immulon 2 plates (Dynatech) were coated with SRBC membrane antigen (Anal. Biochem. 82:362-371 (1978)) at 5 μg/ml in 0.05 M carbonate/bicarbonate buffer (pH 9.6) and incubated overnight at 2-8° C. Plates were blocked for 1-hr at room temperature with Specimen Diluent Concentrate (Genetic Systems, Redmond, Wash.) diluted 1:10 with distilled water. The plates were washed in phosphate-buffered saline and 0.05% Tween-20 (\"PBS/Tween\"). Serum samples were diluted in Specimen Diluent and incubated for 1 hr at room temperature. After washing the plates in PBS/Tween, goat anti-mouse IgG1-horse radish peroxidase-conjugated (\"IgG1-HRP\") antibody (Southern Biotechnology, Birmingham Ala.) was added at 1:5000 dilution and incubated for 1 hr at room temperature. Plates were washed and conjugate binding was detected using 3,3',5,5'-tetramethylbenzidine (\"TMB\") (Genetic Systems) as the substrate. TMB was added and incubated for 15 min at room temperature. The reaction was stopped by the addition of 3 N H2 SO4. Absorbance at […] was recorded from duplicate samples using a microtiter plate reader (Bio Tek Instruments)."}, "70Z/3 murine B-cells": {"test_system": "70Z/3 murine B-cells", "assay": "LPS-induced CD40 expression in 70Z/3 cells", "assay_type": "cell-based", "conditions": "3 hr treatment prior to LPS, FIG. 5", "procedure": "(§1) Expression of κ Ig, CD45, CD40, and the interleukin-2 receptor was assayed using standard enzyme-linked immunosorbent assays (\"ELISAs\") (see, Coligan et al. (eds.) (1991) Current Protocols in Immunology, Wiley & Sons, p. 2.10 or by FACS staining to measure cell-surface markers as described in Raff (1970) Immunology 19:637). Antibodies form cell surface markers were obtained from Pharmingen Co.\n70Z/3 murine B-cells were treated with the SV40MEM polypeptide for 3 hr prior to activation with LPS. After activation with LPS, there was an approximately four-fold increase in CD40 expression above basal levels."}, "HIVLAI in Jurkat cells": {"test_system": "HIVLAI in Jurkat cells", "assay": "Nuclear translocation of HIV genome in Jurkat cells infected with HIVLAI (gag and 2-LTR circle PCR)", "assay_type": "cell-based, HIV-1", "conditions": "SV40MEM 0.1 and 1.0 μM; NF-κBMEM 10 μM; 24 hr, FIG. 8B", "procedure": "HIV-1 M1 p24 levels were assayed using the procedures described in Smithgall et al (1995) AIDS Res. and Human Retrovirus 11:885. Proviral DNA content (gag) was measured using polymerase chain reaction analysis as described in Smithgall et al. (1995), supra.\n2-LTR circles, a strictly nuclear form of HIV-1 DNA the expression of which indicates nuclear localization of the viral genome, was measured by as described in Bukrinsky et al (1991) Science 254:423.\nJurkat cells were incubated with the SV40MEM polypeptide for 3 hr with HIVLAI for 1-2 hr. The virus was washed out and the cultures supplemented with the appropriate inhibitor (SV40MEM, 0.1,μM and 1.0 μM; NF-κBMEM, 10 μM). After 24 hr, the cells were collected, lysed and evaluated for HIV-1 DNA by polymerase chain reaction analysis of gag sequences (see FIG. 8A) and 2-LTR circles (see FIG. 8B)."}, "[2]": {"test_system": "70Z/3 murine leukemia pre-B cells", "assay": "LPS-stimulated surface antigen expression (κ Ig light chain, IL-2 receptor, CD45) in 70Z/3 cells", "assay_type": "cell-based", "procedure": "as §1\nThe effect of the SV40MEM polypeptide was compared with two additional polypeptides, […] (SEQ ID NO:2) (the \"HIV-1MEM\" polypeptide), which is composed of the membrane translocation domain of FGF flanked by the NLS from the HIV-1 matrix protein and […] (SEQ ID NO:3) (the \"C-MYCMEM\" polypeptide), which contains the NLS from the human c-myc oncoprotein (Chelsky et al. (1989), supra, and Dang et al. (1988), supra) using murine 70Z/3 pre-B cells.\nMurine 70Z/3 cells (ATCC TlD-158) are a model cell line for analyzing the effects of compounds on B-cell differentiation. In response to S. typhosa LPS (Difco) or γ-interferon, these cells differentiate from surface κ immunoglobulin negative to κ Ig positive.\n[…] of: (1) a peptide containing only the FGF signal sequence AAVALLPAVLLALLAP (SEQ ID NO:4) (the \"MEM\" peptide); (2) a polypeptide having the FGF signal sequence and the NLS of NF-κB p50 on the carboxy terminus of the signal sequence, namely, the NF-κBMEM polypeptide; (3) the SV40MEM polypeptide comprised of L-amino acids; or (4) the SV40MEM polypeptide comprised of D-amino acids. The cells were then incubated with LPS as described in Example 2 and assayed for expression of κ light chain expression."}, "[3]": {"conditions": "IV 5 mg/kg days 0-3, serum day 14, FIG. 11A"}, "[4]": {"conditions": "PO 1 mg/kg days 0-4, serum day 14, FIG. 11B"}}, "data": [{"sequence": "PKKKRKVAAVALLPAVLLALLAPKKKRKVC [SV40MEM, FGF signal peptide hydrophobic region flanked by SV40 large T antigen NLS]", "values": [{"measurement": "cells undergoing apoptosis", "setting": "Jurkat T-cells; 24-hr incubation with SV40MEM and anti-CD3", "result": "greater than 85%"}, {"measurement": "apoptosis", "setting": "Jurkat T-cells; SV40MEM alone, without anti-CD3", "result": "Neither SV40MEM nor anti-CD3 alone caused significant apoptosis"}, {"measurement": "specific anti-SRBC response", "setting": "[1]; [3]", "result": "inhibited"}, {"measurement": "total IgG levels", "setting": "[1]; [3]", "result": "no effect"}, {"measurement": "specific anti-SRBC response", "setting": "[1]; [4]", "result": "inhibited"}, {"measurement": "total IgG levels", "setting": "[1]; [4]", "result": "no effect"}, {"measurement": "LPS-induced up-regulation of CD40", "setting": "70Z/3 murine B-cells", "result": "inhibited this up-regulation of CD40"}, {"measurement": "translocation of the viral genome into the nucleus (2-LTR circles)", "setting": "HIVLAI in Jurkat cells", "result": "inhibited translocation of the viral genome into the nucleus"}, {"measurement": "expression of CD45", "setting": "[2]; LPS-stimulated, FIG. 1A", "result": "no effect"}, {"measurement": "expression of the interleukin-2 receptor", "setting": "[2]; LPS-stimulated, FIG. 1A", "result": "no effect"}, {"measurement": "inhibition of κ light chain expression", "setting": "[2]; response to S. typhosa LPS, 1-hr pretreatment, FIG. 1A", "result": "75-80%"}, {"measurement": "effect of increasing LPS concentration on the inhibitory effect", "setting": "[2]; κ Ig light chain production, FIG. 1C", "result": "can be overcome by increasing the concentration of LPS"}]}]}
